Experimental data taken from PubChem BioAssay (NCI).
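These data come from cells grown in 96-well plates and exposed to compound for 48 hours at five concentrations. GI50 is the concentration that inhibits growth by half. At the TGI there is no net growth.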

Experiments:
Assay in all cases: NCI tumour cell line growth inhibition, 48 h
786-0 renal = tested on: 786-0 renal
A498 renal = tested on: A498 renal
A549 NSCLC = tested on: A549 NSCLC
ACHN renal = tested on: ACHN renal
BT-549 breast = tested on: BT-549 breast
CAKI-1 renal = tested on: CAKI-1 renal
CCRF-CEM leukemia = tested on: CCRF-CEM leukemia
COLO 205 colon = tested on: COLO 205 colon
DU-145 prostate = tested on: DU-145 prostate
EKVX NSCLC = tested on: EKVX NSCLC
HCC-2998 colon = tested on: HCC-2998 colon
HCT-116 colon = tested on: HCT-116 colon
HCT-15 colon = tested on: HCT-15 colon
HL-60(TB) leukemia = tested on: HL-60(TB) leukemia
HOP-62 NSCLC = tested on: HOP-62 NSCLC
HOP-92 NSCLC = tested on: HOP-92 NSCLC
HS 578T breast = tested on: HS 578T breast
HT29 colon = tested on: HT29 colon
IGROV1 ovarian = tested on: IGROV1 ovarian
K-562 leukemia = tested on: K-562 leukemia
KM12 colon = tested on: KM12 colon
LOX IMVI melanoma = tested on: LOX IMVI melanoma
M14 melanoma = tested on: M14 melanoma
MALME-3M melanoma = tested on: MALME-3M melanoma
MCF7 breast = tested on: MCF7 breast
MDA-MB-231 breast = tested on: MDA-MB-231 breast
MDA-MB-435 = tested on: MDA-MB-435
NCI-H226 lung = tested on: NCI-H226 lung
NCI-H23 lung = tested on: NCI-H23 lung
NCI-H460 lung = tested on: NCI-H460 lung
NCI-H522 lung = tested on: NCI-H522 lung
NCI/ADR-RES ovarian = tested on: NCI/ADR-RES ovarian
OVCAR-3 ovarian = tested on: OVCAR-3 ovarian
OVCAR-4 ovarian = tested on: OVCAR-4 ovarian
OVCAR-5 ovarian = tested on: OVCAR-5 ovarian
OVCAR-8 ovarian = tested on: OVCAR-8 ovarian
PC-3 prostate = tested on: PC-3 prostate
RPMI-8226 leukemia = tested on: RPMI-8226 leukemia
RXF 393 renal = tested on: RXF 393 renal
SF-268 CNS = tested on: SF-268 CNS
SF-295 CNS = tested on: SF-295 CNS
SF-539 CNS = tested on: SF-539 CNS
SK-MEL-2 melanoma = tested on: SK-MEL-2 melanoma
SK-MEL-28 melanoma = tested on: SK-MEL-28 melanoma
SK-MEL-5 melanoma = tested on: SK-MEL-5 melanoma
SK-OV-3 ovarian = tested on: SK-OV-3 ovarian
SN12C renal = tested on: SN12C renal
SNB-19 CNS = tested on: SNB-19 CNS
SNB-75 CNS = tested on: SNB-75 CNS
SR leukemia = tested on: SR leukemia
SW-620 colon = tested on: SW-620 colon
T-47D breast = tested on: T-47D breast
TK-10 renal = tested on: TK-10 renal
U251 CNS = tested on: U251 CNS
UACC-257 melanoma = tested on: UACC-257 melanoma
UACC-62 melanoma = tested on: UACC-62 melanoma
UO-31 renal = tested on: UO-31 renal

Work on `O=C(CSCC(=O)N/N=C/c1ccccc1O)N/N=C\c1ccccc1O` yielded a GI50 (786-0 renal) of 1.95 µM, a TGI (786-0 renal) of 6.59 µM and a GI50 (A498 renal) of 14.3 µM. For the same compound, the TGI (A498 renal) was greater than 100 µM, the GI50 (A549 NSCLC) was 3.2 µM and the TGI (A549 NSCLC) was greater than 100 µM. For the same compound, the GI50 (ACHN renal) was 0.877 µM, the TGI (ACHN renal) was 25 µM and the GI50 (BT-549 breast) was 1.73 µM. The TGI (BT-549 breast) was 56.3 µM, the GI50 (CAKI-1 renal) was 0.627 µM and the TGI (CAKI-1 renal) was 9.82 µM. For the same compound, the GI50 (CCRF-CEM leukemia) was 0.433 µM, the TGI (CCRF-CEM leukemia) was greater than 100 µM and the GI50 (COLO 205 colon) was 2.19 µM. The TGI (COLO 205 colon) was greater than 100 µM, the GI50 (DU-145 prostate) was 1.92 µM and the TGI (DU-145 prostate) was greater than 100 µM. The GI50 (EKVX NSCLC) was 2.44 µM, the TGI (EKVX NSCLC) was greater than 100 µM and the GI50 (HCC-2998 colon) was 1.61 µM. It also gave a TGI (HCC-2998 colon) of 34.4 µM, a GI50 (HCT-116 colon) of 1.06 µM and a TGI (HCT-116 colon) greater than 100 µM. The GI50 (HCT-15 colon) was 0.52 µM, the TGI (HCT-15 colon) was greater than 100 µM and the GI50 (HL-60(TB) leukemia) was 1.49 µM. It also gave a TGI (HL-60(TB) leukemia) of 5.11 µM, a GI50 (HOP-62 NSCLC) of 1.31 µM and a TGI (HOP-62 NSCLC) greater than 100 µM. For the same compound, the GI50 (HOP-92 NSCLC) was 1.73 µM, the TGI (HOP-92 NSCLC) was greater than 100 µM and the GI50 (HS 578T breast) was 26.7 µM. The TGI (HS 578T breast) was greater than 100 µM, the GI50 (HT29 colon) was 5.64 µM and the TGI (HT29 colon) was greater than 100 µM. For the same compound, the GI50 (IGROV1 ovarian) was 1.91 µM, the TGI (IGROV1 ovarian) was greater than 100 µM and the GI50 (K-562 leukemia) was 2.39 µM. The TGI (K-562 leukemia) was greater than 100 µM, the GI50 (KM12 colon) was 2.42 µM and the TGI (KM12 colon) was greater than 100 µM. It also gave a GI50 (LOX IMVI melanoma) of 0.748 µM, a TGI (LOX IMVI melanoma) greater than 100 µM and a GI50 (M14 melanoma) of 1.51 µM. It also gave a TGI (M14 melanoma) of 12.5 µM, a GI50 (MALME-3M melanoma) of 2.29 µM and a TGI (MALME-3M melanoma) of 25.2 µM. For the same compound, the GI50 (MCF7 breast) was 5.85 µM, the TGI (MCF7 breast) was greater than 100 µM and the GI50 (MDA-MB-231 breast) was 4.16 µM. The TGI (MDA-MB-231 breast) was greater than 100 µM, the GI50 (MDA-MB-435) was 3.44 µM and the TGI (MDA-MB-435) was greater than 100 µM. It also gave a GI50 (NCI-H226 lung) of 3.43 µM, a TGI (NCI-H226 lung) greater than 100 µM and a GI50 (NCI-H23 lung) of 3.33 µM. For the same compound, the TGI (NCI-H23 lung) was greater than 100 µM, the GI50 (NCI-H460 lung) was 2.27 µM and the TGI (NCI-H460 lung) was greater than 100 µM. For the same compound, the GI50 (NCI-H522 lung) was 3.61 µM, the TGI (NCI-H522 lung) was greater than 100 µM and the GI50 (NCI/ADR-RES ovarian) was 2.87 µM. It also gave a TGI (NCI/ADR-RES ovarian) greater than 100 µM, a GI50 (OVCAR-3 ovarian) of 4.76 µM and a TGI (OVCAR-3 ovarian) greater than 100 µM. The GI50 (OVCAR-4 ovarian) was 1.72 µM, the TGI (OVCAR-4 ovarian) was greater than 100 µM and the GI50 (OVCAR-5 ovarian) was 5.11 µM. It also gave a TGI (OVCAR-5 ovarian) greater than 100 µM, a GI50 (OVCAR-8 ovarian) of 1.92 µM and a TGI (OVCAR-8 ovarian) greater than 100 µM. The GI50 (PC-3 prostate) was 3.06 µM, the TGI (PC-3 prostate) was greater than 100 µM and the GI50 (RPMI-8226 leukemia) was 3.49 µM. It also gave a TGI (RPMI-8226 leukemia) greater than 100 µM, a GI50 (RXF 393 renal) of 2.46 µM and a TGI (RXF 393 renal) greater than 100 µM. It also gave a GI50 (SF-268 CNS) of 1.2 µM, a TGI (SF-268 CNS) greater than 100 µM and a GI50 (SF-295 CNS) of 1.78 µM. For the same compound, the TGI (SF-295 CNS) was greater than 100 µM, the GI50 (SF-539 CNS) was 2.1 µM and the TGI (SF-539 CNS) was 23 µM. For the same compound, the GI50 (SK-MEL-2 melanoma) was 5.35 µM, the TGI (SK-MEL-2 melanoma) was greater than 100 µM and the GI50 (SK-MEL-28 melanoma) was 8.05 µM. The TGI (SK-MEL-28 melanoma) was greater than 100 µM, the GI50 (SK-MEL-5 melanoma) was 1.86 µM and the TGI (SK-MEL-5 melanoma) was greater than 100 µM. It also gave a GI50 (SK-OV-3 ovarian) of 2.4 µM, a TGI (SK-OV-3 ovarian) greater than 100 µM and a GI50 (SN12C renal) of 2.46 µM. For the same compound, the TGI (SN12C renal) was greater than 100 µM, the GI50 (SNB-19 CNS) was 2.95 µM and the TGI (SNB-19 CNS) was greater than 100 µM. It also gave a GI50 (SNB-75 CNS) of 67.7 µM, a TGI (SNB-75 CNS) greater than 100 µM and a GI50 (SR leukemia) of 0.668 µM. It also gave a TGI (SR leukemia) greater than 100 µM, a GI50 (SW-620 colon) of 3.25 µM and a TGI (SW-620 colon) greater than 100 µM. It also gave a GI50 (T-47D breast) of 2.36 µM, a TGI (T-47D breast) greater than 100 µM and a GI50 (TK-10 renal) of 1.83 µM. The TGI (TK-10 renal) was greater than 100 µM, the GI50 (U251 CNS) was 1.06 µM and the TGI (U251 CNS) was greater than 100 µM. For the same compound, the GI50 (UACC-257 melanoma) was 3.09 µM, the TGI (UACC-257 melanoma) was 22.5 µM and the GI50 (UACC-62 melanoma) was 1.61 µM. The TGI (UACC-62 melanoma) was 7.13 µM, the GI50 (UO-31 renal) was 1.06 µM and the TGI (UO-31 renal) was 37.3 µM.
